# pIC50: −log10 of the molar value. Several values for one entry are separate records, joined by “and”; a condition that tells them apart may be missing. Identical values can stand only once. Like-named read-outs stand apart in the source and are kept apart here.
# Experiments:
# [1] = test system: TNF-α production; experiment: Inhibition of TNF-α production following LPS-stimulation of human PBMC; type: cell-based
# [2] = test system: MM.1S cells; experiment: Inhibition of MM cell proliferation, [3H]-thymidine uptake, MM.1S; type: cell-based
# Description: (§1) The uptake of [^3H]-thymidine by different MM cell lines (MM.1S, Hs Sultan, U266 and RPMI-8226) was measured as an indicator of the cell proliferation.
# (§2) Uptake [^3H]-thymidine by different MM cell lines (MM.1S, Hs Sultan, U266 and RPMI-8226) was measured as an indicator of cell proliferation. Cells were incubated in the presence of compounds for 48 hours; [^3H]-thymidine was included for the last 8 hours of the incubation period.
# [3] = test system: Hs Sultan cells; experiment: Inhibition of MM cell proliferation, [3H]-thymidine uptake, Hs Sultan; type: cell-based
# Description: as §1, §2
# [4] = test system: T-cells; experiment: Stimulation of T-cell proliferation following primary induction by T-cell receptor (TCR) activation; type: cell-based
# [5] = test system: IL-2; experiment: Augmentation of IL-2 production following TCR activation of PBMC; type: cell-based
# [6] = test system: IFN-γ; experiment: Augmentation of IFN-γ production following TCR activation of T-cells; type: cell-based
# [7] = LPS-stimulated production of IL-113 by PBMC; type: cell-based
# [8] = test system: IL-6; experiment: LPS-stimulated production of IL-6 by PBMC; type: cell-based
# [9] = test system: IL-10; experiment: LPS-stimulated production of IL-10 by PBMC; type: cell-based
# [10] = Cardiovascular and respiratory function in anesthetized dogs; type: in vivo, Beagle dogs
# Text: Two groups of Beagle dogs (2/sex/group) are used.
# [11] = Phase 1 studies in refractory or relapsed multiple myeloma patients: pharmacokinetics; type: in vivo
# Description: (§3) Patients started 3-(4-amino-1-oxo-1,3-dihydro-isoindol-2-yl) -piperidine -2,6-dione treatment at 5 mg/day with subsequent escalation to 10, 25, and 50 mg/day. […] Patients were evaluated for adverse events at each visit and the severity of these events was graded according to the National Cancer Institute (NCI) Common Toxicity Criteria. Patients were discontinued if they experienced DLT (Grade 3 or greater non-hematological, or Grade 4 hematological toxicity).
# Blood and urine samples were collected for analysis of pharmacokinetic parameters on Days 1 and 28. Blood samples were collected according to the following sampling schedule: pre-dose, 0.25, 0.5, 0.75, 1, 1.5, 2, 2.5, 3, 4, 6, 8, 10, 12, 18, and 24 hours post-dose. In addition, a blood sample was collected at each weekly clinic visit for 3-(4-amino-1-oxo-1,3-dihydro-isoindol-2-yl)-piperidine-2,6-dione determination. Total urine was collected and pooled according to the following time intervals post-dose: 0 to 4, 4 to 8, 8 to 12, and 12 to 24 hours. […] Bone marrow aspirations and/or tissue biopsy are also performed at Months 3, 6 and 12 if a patient's paraprotein serum concentration or 24-hour urine protein excretion declined to the next lower level, based on best response criteria.
# [12] = Phase 1 studies in refractory or relapsed multiple myeloma patients: dose limiting toxicity; type: in vivo
# Description: as §3
# The second cohort of 3 patients subsequently commenced therapy at 10 mg/day.
# [13] = Phase 1 study in patients with solid tumors: dose limiting toxicity; type: in vivo; conditions: initial group of 20 patients with solid tumors, 5 escalated to 50 mg/day over 4 weeks
# Description: Patients who, experienced clinical benefit were permitted to continue on treatment as Named Patients.
# The study initially enrolled 20 patients and was subsequently amended to enroll 16 additional patients (adrenal carcinoma, NSCLC, malignant mesothelioma, breast cancer, metastatic melanoma (8), renal cell cancer (4)) at a higher dose. The 16 additional patients were given weekly escalating doses of 25 mg/day, 50 mg/day, 75 mg/day, 100 mg/day, 125 mg/day, and 150 mg/day over a 6-week period with continuing treatment for an additional six weeks.
# The study design dictates that at least 3 patients must be enrolled at a dose level and have completed 28 days of treatment prior to enrollment of patients at the next higher dose level. […] Patients will be escalated to 10, 20, 25, and 30 mg/day provided there is no toxicity.
# If, at any given dose level in either study, one out of three patients experiences toxicity, three additional patients must be treated at that particular dose. If, however, two out of six patients experience DLT, the MTD is judged to have been exceeded. No further dose escalations are to occur and additional patients are to be enrolled at the previous dose level. The dose of 3-(4-amino-l-oxo-1,3-dihydro-isoindol-2-yl)-piperidine-2,6-dione administered is escalated until the MTD is achieved or the maximum daily dose […] is reached.
# [14] = test system: metastatic melanoma; experiment: Treatment of metastatic melanoma patients; type: in vivo, human
# Description: The dose was then increased every seven days to 10 mg/day, 25 mg/day, and 50 mg/day, respectively, for a total of four weeks on therapy.
# [15] = test system: TNF-α production; conditions: human PBMC, cited from earlier work; for pIC50: LPS, read-out: IC50 for inhibiting production of TNF-α following LPS-stimulation of PBMC
# [16] = test system: TNF-α production; conditions: cited from earlier work; for pIC50: human whole blood, LPS, read-out: IC50 for inhibiting production of TNF-α following LPS-stimulation of human whole blood
# [17] = Pharmacokinetics of Actimid in relapsed/refractory multiple myeloma patients; type: in vivo, human
# Description: 6.5.1 Treatment of Relapsed Multiple Myeloma p 4-(Amino)-2-(2,6-dioxo(3-piperidyl))-isoindoline-1,3-dione (Actimid™) was administered to patients with relapsed/refractory multiple myeloma. The study was conducted in compliance with Good Clinical Practices. Patients were at least 18 years old, had been diagnosed with multiple myeloma (with paraprotein in serum and/or urine), and were considered refractory to treatment after at least two cycles of treatment, or have relapsed after two cycles of treatment.
# Patients who have progressive disease, according to the Southwest Oncology Group (SWOG) criteria, on their prior regimen are considered treatment refractory. Relapse following remission is defined as >25% increase in M component from baseline levels; reappearance of the M paraprotein that had previously disappeared; or a definite increase in the size and number of lytic bone lesions recognized on radiographs. Patients may have had prior therapy with thalidomide, provided they were able to tolerate the treatment. A Zubrod performance status of 0 to 2 is required for all patients.
# 4-(Amino)-2-(2,6-dioxo(3-piperidyl))-isoindoline-1,3-dione is administered to patients at doses of 1, 2, 5, or 10 mg/day for up to four weeks; at each dose level, three patients are initially enrolled. Dosing occurs at approximately the same time each morning; all doses are administered in the fasted state (no eating for at least two hours prior to dosing and two hours after dosing). 4-(Amino)-2-(2,6-dioxo(3-piperidyl))-isoindoline-1,3-dione doses are administered in an ascending fashion such that patients in the first cohort receive the lowest dose of 4-(amino)-2-(2,6-dioxo(3-piperidyl))-isoindoline-1,3-dione (1 mg/day) and escalation to the next higher dose level occurs only following the establishment of safety and tolerability at the current dose. If one out of three patients at any dose level experience dose limiting toxicity (DLT), three additional patients are enrolled at that dose. If none of the three additional patients experience DLT, escalation to the next dose level occurs; dose escalations continue in a similar fashion until the MTD is established or the maximum daily dose (10 mg/day) is attained. However, if one of the three additional patients enrolled experiences DLT, the MTD has been reached. If two or more of the three additional patients enrolled experience DLT, the MTD is judged to have been exceeded and three additional patients are enrolled at the preceding dose level to confirm the MTD. Once the MTD has been identified, four additional patients are enrolled at that dose level so that a total of 10 patients is treated at the MTD.
# Blood sampling for analysis of pharmacokinetic parameters is performed on Days 1 and 28 according to the following sampling schedule: pre-dose, 0.25, 0.5, 0.75, 1, 1.5, 2, 2.5, 3, 4, 6, 8, 10, 12, 18, and 24 hours post-dose. An additional blood sample is collected at each weekly visit for the determination of 4-(amino)-2-(2,6-dioxo(3-piperidyl))-isoindoline-1,3-dione levels. Total urine collections are also made with urine pooled according to the following time intervals post-dose: 0 to 4, 4 to 8, 8 to 12, and 12 to 24 hours. Safety assessments are made by monitoring adverse events, vital signs, ECGs, clinical laboratory evaluations (blood chemistry, hematology, lymphocyte phenotyping, and urinalysis), and physical examination at specific times during the study.
structure (smiles),measurement,setting,value
"Nc1cccc2c1CN(C1CCC(=O)NC1=O)C2=O (centres unmarked) [3-(4-amino-1-oxo-1,3-dihydro-isoindol-2-yl)-piperidine-2,6-dione]",LPS-stimulated production of TNF-α by PBMC,[1],dose-dependent inhibition
same,pIC50,"[2]; Homo sapiens, MM1.S, read-out: concentration resulting in 50% inhibition of cell proliferation, MM.1S cells, 48 hours, [3H]-thymidine last 8 hours",6.40
same,pIC50,"[3]; read-out: concentration resulting in 50% inhibition of cell proliferation, 48 hours, [3H]-thymidine last 8 hours",6.00
same,times more potent than thalidomide in stimulating the proliferation of T-cells,[4],50-100 times
same,times more potent than thalidomide in augmenting the production of IL-2,[5],50-100 times
same,times more potent than thalidomide in augmenting the production of IFN-γ,[6],50-100 times
same,LPS-stimulated production of IL-113 by PBMC,[7],dose-dependent inhibition
same,LPS-stimulated production of IL-6 by PBMC,[8],dose-dependent inhibition
same,production of the anti-inflammatory cytokine IL-10,[9],increased production
same,cardiovascular and respiratory changes compared to the vehicle control group,"[10]; anesthetized Beagle dogs, all doses (2, 10, and 20 mg/kg), infusion through the jugular vein",minimal
same,increase in arterial blood pressure at higher doses,"[10]; anesthetized dogs, higher doses (10, 20 mg/kg)",not seen at higher doses
same,duration of the increase in arterial blood pressure,"[10]; anesthetized dogs, low dose",approximately 15 minutes
same,arterial blood pressure after small increase (from 94 mmHg),"[10]; anesthetized dogs, low dose (2 mg/kg), infusion",101 mmHg
same,"deviations in femoral blood flow, respiratory parameters, and Qtc interval","[10]; anesthetized dogs, common to control and treated groups",not considered treatment-related
same,accumulation with multiple dosing,"[11]; human, in vivo",no evidence of accumulation
same,"half-live in patients, mean","[11]; human, in vivo",8 h
same,"half-live in patients, range","[11]; human, in vivo",up to 17 hours
same,plasma concentration profile,"[11]; human, in vivo",double peaks were observed
same,clearance compared to healthy volunteers,[11]; multiple myeloma patients,lower
same,exposure (Cmax and AUC) compared to healthy male volunteers,[11]; multiple myeloma patients,slightly higher
same,dose limiting toxicity (DLT),"[12]; 5 mg/day for 28 days, first cohort of 3 patients",without any dose limiting toxicity
same,tolerability,"[12]; 10 mg/day, second cohort of 3 patients",tolerated treatment well
same,DLTs,[13],No DLTs were reported
same,patients showing disease stabilization or a partial response,"[14]; first four weeks of treatment, 5 escalated weekly to 10, 25, 50 mg/day",Five of the 13
same,duration of response,[14]; metastatic melanoma patients,approximately six
same,tumor response in cutaneous and subcutaneous lesions,[14]; metastatic melanoma patients,five
same,tumor response in liver,[14]; metastatic melanoma patients,one
same,tumor response in lymph nodes,[14]; metastatic melanoma patients,two
same,pIC50,[15],~7.00
same,IC50 for inhibiting production of TNF-α following LPS-stimulation of PBMC,[15],25.9 ng/mL
same,IC50 for inhibiting production of TNF-α following LPS-stimulation of human whole blood,[16],103.6 ng/mL
same,pIC50,[16],~6.32
"Nc1cccc2c1C(=O)N(C1CCC(=O)NC1=O)C2=O (centres unmarked) [Actimid, 4-(Amino)-2-(2,6-dioxo(3-piperidyl))-isoindoline-1,3-dione]",IC50,"[2]; Homo sapiens, MM1.S, read-out: concentration achieving 50% inhibition of proliferation, MM.IS cells",0.00273 µg/mL to 0.0273 µg/mL and 10 nM to 100 nM
same,IC50,[3]; read-out: concentration achieving 50% inhibition of proliferation,0.00273 µg/mL to 0.0273 µg/mL and 10 nM to 100 nM
same,fold increase in AUC(01) with a 5-fold increase in dose,[17]; Day 1,3.6 fold
same,fold increase in Cmax with a five-fold higher dose,[17]; Day 1,3.2 fold
same,fold increase in AUC(01) with a 5-fold increase in dose,[17]; Week 4,2.3 fold
same,fold increase in Cmax with a five-fold higher dose,[17]; Week 4,2.2 fold
same,absorption,"[17]; all dose levels, relapsed multiple myeloma patients",steadily absorbed
same,decline of plasma concentrations after reaching Cmax,"[17]; human, in vivo",monophasic manner
same,median Tmax,"[17]; human, in vivo",3 to 4 h
same,CL/F,"[17]; human, in vivo, 1 mg",114.75 mL/min
same,CL/F,"[17]; human, in vivo, 2 mg",121.43 mL/min
same,CL/F,"[17]; human, in vivo, 5 mg",182.31 mL/min
same,t½,"[17]; human, in vivo, 5 mg",6.5 h
same,pIC50,[15],~7.62
same,IC50 for inhibiting production of TNF-α following LPS-stimulation of PBMC,[15],6.55 ng/mL
same,IC50 for inhibiting production of TNF-α following LPS-stimulation of human whole blood,[16],6.83 ng/mL
same,pIC50,[16],~7.60
"O=C1CCC(N2C(=O)c3ccccc3C2=O)C(=O)N1 (centres unmarked) [thalidomide, reference compound]",inhibition of cell proliferation,"[2]; MM.1S cells, concentrations up to 100 μm, 48 hours",15%
same,inhibition of cell proliferation,"[3]; concentrations up to 100 μm, 48 hours",20%
same,pIC50,[15],~3.71
same,IC50 for inhibiting production of TNF-α following LPS-stimulation of PBMC,[15],50200 ng/mL
